In ChEMBL document CHEMBL5291721, “A preclinical secondary pharmacology resource illuminates target-adverse drug reaction associations of marketed drugs” (Nat Commun, 2023):

How the values were obtained:
Cannabinoid receptor 1 [1] = target: T1, Cannabinoid receptor 1 (Homo sapiens, UniProt P21554)
D(3) dopamine receptor = D(3) dopamine receptor (Homo sapiens, UniProt P35462)
[2] = target: T2, Alpha-1A adrenergic receptor (Homo sapiens, UniProt P35348); format: functional, cell-based
T2 sequence (P35348 whole entry): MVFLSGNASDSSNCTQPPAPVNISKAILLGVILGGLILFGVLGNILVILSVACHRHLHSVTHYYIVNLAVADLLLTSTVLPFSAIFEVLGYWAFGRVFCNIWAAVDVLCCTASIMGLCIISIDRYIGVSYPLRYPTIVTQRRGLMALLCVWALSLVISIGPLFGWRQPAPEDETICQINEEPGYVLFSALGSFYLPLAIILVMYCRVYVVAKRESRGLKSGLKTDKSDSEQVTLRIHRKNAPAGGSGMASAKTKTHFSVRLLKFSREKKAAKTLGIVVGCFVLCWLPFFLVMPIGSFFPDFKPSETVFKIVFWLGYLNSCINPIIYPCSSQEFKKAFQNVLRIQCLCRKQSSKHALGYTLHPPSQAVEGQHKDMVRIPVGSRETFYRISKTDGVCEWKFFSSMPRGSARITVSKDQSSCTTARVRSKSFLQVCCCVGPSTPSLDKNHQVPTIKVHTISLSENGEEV

Mu-type opioid receptor [3] = target: T3, Mu-type opioid receptor (Homo sapiens, UniProt P35372)
B2 bradykinin receptor = target: T4, B2 bradykinin receptor (Homo sapiens, UniProt P30411)
T4 sequence (P30411 whole entry): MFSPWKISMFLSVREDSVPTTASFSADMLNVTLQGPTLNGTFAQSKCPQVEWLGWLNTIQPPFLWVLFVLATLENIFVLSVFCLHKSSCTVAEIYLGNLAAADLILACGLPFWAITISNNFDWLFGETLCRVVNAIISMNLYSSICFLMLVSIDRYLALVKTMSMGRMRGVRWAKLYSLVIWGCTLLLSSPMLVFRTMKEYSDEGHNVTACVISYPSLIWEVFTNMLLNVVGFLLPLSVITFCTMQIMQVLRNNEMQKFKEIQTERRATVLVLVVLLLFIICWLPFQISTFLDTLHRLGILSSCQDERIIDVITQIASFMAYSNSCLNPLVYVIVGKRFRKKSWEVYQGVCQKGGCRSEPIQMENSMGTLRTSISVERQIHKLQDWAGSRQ

[4] = target: T5, 5-hydroxytryptamine receptor 2B (Homo sapiens, UniProt P41595); format: functional, cell-based
Cannabinoid receptor 1 [5] = target: T1, Cannabinoid receptor 1; format: functional, cell-based
Melanocortin receptor 3 = Melanocortin receptor 3 (Homo sapiens, UniProt P41968)
[6] = target: T5, 5-hydroxytryptamine receptor 2B; format: functional, cell-based; remark: listed apart in the source
[7] = target: T6, Alpha-2C adrenergic receptor (Homo sapiens, UniProt P18825); format: functional
T6 sequence (P18825 whole entry): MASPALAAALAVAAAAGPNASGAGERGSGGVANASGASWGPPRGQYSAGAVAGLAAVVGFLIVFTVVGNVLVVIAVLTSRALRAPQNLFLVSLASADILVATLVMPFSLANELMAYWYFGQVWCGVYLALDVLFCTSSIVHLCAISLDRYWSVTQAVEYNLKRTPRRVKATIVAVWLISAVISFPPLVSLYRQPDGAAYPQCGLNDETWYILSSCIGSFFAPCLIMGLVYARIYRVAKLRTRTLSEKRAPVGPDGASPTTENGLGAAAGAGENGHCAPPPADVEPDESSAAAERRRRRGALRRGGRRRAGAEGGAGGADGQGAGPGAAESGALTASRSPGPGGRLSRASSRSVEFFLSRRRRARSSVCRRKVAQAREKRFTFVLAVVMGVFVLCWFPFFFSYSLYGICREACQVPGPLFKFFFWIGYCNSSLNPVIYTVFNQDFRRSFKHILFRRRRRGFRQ

Melanocortin receptor 4 = Melanocortin receptor 4 (Homo sapiens, UniProt P32245)
Cannabinoid receptor 1 [8] = target: T1, Cannabinoid receptor 1; format: functional, cell-based; remark: listed apart in the source
Mu-type opioid receptor [9] = target: T3, Mu-type opioid receptor; test: biochemical; format: functional
Estrogen receptor [10] = target: T7, Estrogen receptor (Homo sapiens, UniProt P03372)
T7 sequence (P03372 whole entry): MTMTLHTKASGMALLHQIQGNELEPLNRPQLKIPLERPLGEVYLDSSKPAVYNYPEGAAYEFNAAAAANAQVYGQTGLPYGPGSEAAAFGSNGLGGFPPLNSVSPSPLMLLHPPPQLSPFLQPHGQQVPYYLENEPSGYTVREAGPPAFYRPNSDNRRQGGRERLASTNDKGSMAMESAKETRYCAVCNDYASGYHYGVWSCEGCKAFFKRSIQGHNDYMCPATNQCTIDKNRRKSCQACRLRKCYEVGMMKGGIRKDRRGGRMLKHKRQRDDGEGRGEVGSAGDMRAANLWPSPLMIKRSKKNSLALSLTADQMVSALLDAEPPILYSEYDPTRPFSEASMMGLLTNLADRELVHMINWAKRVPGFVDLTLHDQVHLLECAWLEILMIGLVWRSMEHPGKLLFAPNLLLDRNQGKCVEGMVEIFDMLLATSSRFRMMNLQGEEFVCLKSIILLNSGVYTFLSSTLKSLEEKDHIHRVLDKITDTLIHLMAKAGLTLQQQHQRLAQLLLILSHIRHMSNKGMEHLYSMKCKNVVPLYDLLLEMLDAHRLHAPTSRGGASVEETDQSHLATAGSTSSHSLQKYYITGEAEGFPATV

Estrogen receptor [11] = target: T7, Estrogen receptor; remark: listed apart in the source
Adenosine receptor A3 = target: T8, Adenosine receptor A3 (Homo sapiens, UniProt P0DMS8)
T8 sequence (P0DMS8 whole entry): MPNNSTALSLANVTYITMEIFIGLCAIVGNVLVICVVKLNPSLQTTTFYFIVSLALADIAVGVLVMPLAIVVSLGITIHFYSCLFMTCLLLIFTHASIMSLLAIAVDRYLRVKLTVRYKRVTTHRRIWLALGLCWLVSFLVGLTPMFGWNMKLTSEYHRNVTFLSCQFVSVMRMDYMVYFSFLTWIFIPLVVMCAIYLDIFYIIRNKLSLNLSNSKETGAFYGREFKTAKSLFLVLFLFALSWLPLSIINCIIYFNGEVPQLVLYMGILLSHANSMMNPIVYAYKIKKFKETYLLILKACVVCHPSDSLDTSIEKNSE
Note: assay procedure not described here.

Melanocortin receptor 3, sequence (P41968 whole entry): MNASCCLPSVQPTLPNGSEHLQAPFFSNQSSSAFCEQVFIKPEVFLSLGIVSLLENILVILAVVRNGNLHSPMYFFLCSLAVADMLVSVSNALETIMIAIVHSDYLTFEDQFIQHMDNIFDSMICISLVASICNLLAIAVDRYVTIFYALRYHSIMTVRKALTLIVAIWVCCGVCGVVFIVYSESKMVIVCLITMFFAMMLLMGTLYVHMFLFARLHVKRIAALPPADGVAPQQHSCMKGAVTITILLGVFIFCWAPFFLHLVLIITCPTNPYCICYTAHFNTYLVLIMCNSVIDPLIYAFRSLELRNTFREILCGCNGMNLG
T3 sequence (P35372 whole entry): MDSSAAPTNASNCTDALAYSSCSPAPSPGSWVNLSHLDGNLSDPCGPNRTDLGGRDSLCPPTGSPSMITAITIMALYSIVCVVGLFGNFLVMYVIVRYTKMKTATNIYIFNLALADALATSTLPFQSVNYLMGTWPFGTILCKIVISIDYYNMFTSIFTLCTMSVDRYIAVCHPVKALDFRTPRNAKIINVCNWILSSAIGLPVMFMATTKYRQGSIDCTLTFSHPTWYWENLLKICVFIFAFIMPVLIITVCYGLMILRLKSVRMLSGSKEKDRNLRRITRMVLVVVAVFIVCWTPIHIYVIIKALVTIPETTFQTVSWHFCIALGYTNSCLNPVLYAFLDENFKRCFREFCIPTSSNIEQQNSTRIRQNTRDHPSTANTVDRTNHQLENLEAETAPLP
D(3) dopamine receptor, sequence (P35462 whole entry): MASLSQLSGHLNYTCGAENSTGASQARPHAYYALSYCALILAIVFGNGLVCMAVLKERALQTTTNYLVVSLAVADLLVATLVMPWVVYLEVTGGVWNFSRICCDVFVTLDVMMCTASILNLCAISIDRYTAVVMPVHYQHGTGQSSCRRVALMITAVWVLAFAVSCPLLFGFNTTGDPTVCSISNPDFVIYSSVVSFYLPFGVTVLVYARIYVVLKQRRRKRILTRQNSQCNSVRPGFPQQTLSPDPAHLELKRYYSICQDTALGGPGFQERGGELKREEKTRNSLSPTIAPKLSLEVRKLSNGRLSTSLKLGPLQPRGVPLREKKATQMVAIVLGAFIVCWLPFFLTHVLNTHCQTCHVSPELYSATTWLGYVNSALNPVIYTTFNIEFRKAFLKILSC
T5 sequence (P41595 whole entry): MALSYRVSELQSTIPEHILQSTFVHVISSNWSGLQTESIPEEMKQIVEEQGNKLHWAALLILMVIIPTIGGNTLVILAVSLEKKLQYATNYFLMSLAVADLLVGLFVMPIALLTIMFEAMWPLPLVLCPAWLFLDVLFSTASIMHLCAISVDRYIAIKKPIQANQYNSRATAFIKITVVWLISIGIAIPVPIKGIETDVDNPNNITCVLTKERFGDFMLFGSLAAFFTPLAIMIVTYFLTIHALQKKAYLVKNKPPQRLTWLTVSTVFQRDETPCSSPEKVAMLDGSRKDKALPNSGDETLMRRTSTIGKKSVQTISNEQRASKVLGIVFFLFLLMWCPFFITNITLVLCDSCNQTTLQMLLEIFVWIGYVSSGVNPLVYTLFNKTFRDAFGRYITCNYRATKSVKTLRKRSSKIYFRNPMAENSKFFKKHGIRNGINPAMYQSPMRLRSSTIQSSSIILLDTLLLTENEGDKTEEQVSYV
T1 sequence (P21554 whole entry): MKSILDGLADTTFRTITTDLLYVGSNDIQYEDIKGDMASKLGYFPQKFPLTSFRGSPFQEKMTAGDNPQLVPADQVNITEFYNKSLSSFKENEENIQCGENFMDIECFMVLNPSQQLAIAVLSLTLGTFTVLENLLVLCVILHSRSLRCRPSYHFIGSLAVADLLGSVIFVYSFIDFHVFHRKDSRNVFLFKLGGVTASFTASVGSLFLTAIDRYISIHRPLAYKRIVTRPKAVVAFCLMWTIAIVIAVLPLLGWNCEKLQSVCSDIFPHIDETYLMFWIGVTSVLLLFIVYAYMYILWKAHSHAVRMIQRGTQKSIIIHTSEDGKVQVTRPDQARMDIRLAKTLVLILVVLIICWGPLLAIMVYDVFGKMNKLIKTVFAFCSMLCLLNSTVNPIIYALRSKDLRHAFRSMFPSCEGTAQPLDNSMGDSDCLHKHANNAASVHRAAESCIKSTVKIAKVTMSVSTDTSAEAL
Melanocortin receptor 4, sequence (P32245 whole entry): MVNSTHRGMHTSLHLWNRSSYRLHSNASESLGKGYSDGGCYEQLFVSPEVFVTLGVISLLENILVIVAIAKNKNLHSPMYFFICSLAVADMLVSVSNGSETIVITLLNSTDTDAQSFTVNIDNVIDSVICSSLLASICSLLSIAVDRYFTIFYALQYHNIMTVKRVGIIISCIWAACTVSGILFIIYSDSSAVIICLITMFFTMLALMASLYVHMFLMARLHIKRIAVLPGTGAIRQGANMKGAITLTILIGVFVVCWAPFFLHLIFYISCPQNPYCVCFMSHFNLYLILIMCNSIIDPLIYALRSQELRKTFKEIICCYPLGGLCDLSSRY

SMILES	AC50 (Cannabinoid receptor 1 [1])	AC50 (D(3) dopamine receptor)	AC50 [2]	AC50 (Mu-type opioid receptor [3])	AC50 (B2 bradykinin receptor)	AC50 [4]	AC50 (Cannabinoid receptor 1 [5])	AC50 (Melanocortin receptor 3)	AC50 [6]	AC50 [7]	AC50 (Melanocortin receptor 4)	AC50 (Cannabinoid receptor 1 [8])	AC50 (Mu-type opioid receptor [9])	AC50 (Estrogen receptor [10])	AC50 (Estrogen receptor [11])	AC50 (Adenosine receptor A3)
C[C@@H]1C[C@H]2[C@@H]3C[C@H](F)C4=CC(=O)C=C[C@]4(C)[C@@]3(F)[C@@H](O)C[C@]2(C)[C@@]1(OC(=O)c1ccco1)C(=O)SCF [FLUTICASONE FUROATE]	16.3 µM	> 30 µM	> 30 µM	> 30 µM	> 10 µM	> 10 µM	> 30 µM	> 10 µM	> 10 µM	> 10 µM	> 10 µM	> 30 µM				
Cc1ccccc1-n1c(CF)nc2ccc(N)cc2c1=O [AFLOQUALONE]	> 10 µM				> 30 µM	> 10 µM		> 30 µM	> 10 µM	> 10 µM	> 30 µM		> 30 µM			
CC(O)(CS(=O)(=O)c1ccc(F)cc1)C(=O)Nc1ccc(C#N)c(C(F)(F)F)c1 (configuration not stated) [BICALUTAMIDE]	> 10 µM	> 30 µM	> 10 µM	> 30 µM	> 30 µM	> 10 µM	> 30 µM	> 30 µM	> 10 µM	13 µM	> 30 µM	> 30 µM				
CC(C)(Oc1ccc(CCNC(=O)c2ccc(Cl)cc2)cc1)C(=O)O [BEZAFIBRATE]	> 10 µM				> 10 µM	> 10 µM	> 30 µM	> 10 µM	> 10 µM	> 10 µM	> 10 µM	> 30 µM		> 10 µM		
CN[C@@H](C)[C@@H](O)c1ccccc1 [PSEUDOEPHEDRINE]					> 30 µM	> 10 µM		> 30 µM	> 10 µM	13 µM	> 30 µM		> 30 µM	> 30 µM		
O=C1c2ccccc2C(=O)C1c1ccccc1 [PHENINDIONE]	> 10 µM				> 10 µM	> 10 µM	> 30 µM	> 10 µM	18 µM	> 10 µM	> 10 µM	> 30 µM		> 10 µM		
C[C@]12CCC(=O)C[C@@H]1CC[C@@H]1[C@@H]2CC[C@]2(C)[C@@H](O)CC[C@@H]12 [STANOLONE]	> 30 µM				> 30 µM	> 30 µM		> 30 µM	> 30 µM	> 30 µM	> 30 µM		> 30 µM			
Cc1ccccc1N1C(=O)c2cc(S(N)(=O)=O)c(Cl)cc2NC1C (configuration not stated) [METOLAZONE]	> 10 µM				> 10 µM	> 10 µM		> 10 µM	> 10 µM	> 10 µM	> 10 µM		> 30 µM			
CCOC(=O)c1ccc(N)cc1 [BENZOCAINE]	> 10 µM				> 10 µM	> 10 µM		> 10 µM	> 10 µM	> 10 µM	> 10 µM					
CN(C)CCCN1c2ccccc2CCc2ccccc21 [IMIPRAMINE]	0.174 µM				> 30 µM	> 10 µM	> 30 µM	18.8 µM	5 µM	2.1 µM	21.4 µM	> 30 µM	28 µM			
CC(=O)O[C@]1(C(C)=O)CC[C@H]2[C@@H]3C=C(Cl)C4=CC(=O)[C@@H]5C[C@@H]5[C@]4(C)[C@H]3CC[C@@]21C [CYPROTERONE ACETATE]	> 10 µM	> 30 µM	> 30 µM	> 30 µM	> 30 µM			> 30 µM		> 10 µM	> 30 µM					
C[N+]1(C)CCC(=C(c2ccccc2)c2ccccc2)CC1	> 10 µM				> 30 µM	> 10 µM		> 30 µM	29 µM	> 10 µM	> 30 µM					
N[C@@H](Cc1ccccc1)C(=O)O [PHENYLALANINE]		> 30 µM	> 30 µM	> 30 µM											> 30 µM	> 30 µM
CC(=O)[C@]1(N)Cc2c(O)c3c(c(O)c2[C@@H](O[C@H]2C[C@H](O)[C@H](O)CO2)C1)C(=O)c1ccccc1C3=O [AMRUBICIN]		> 30 µM	20.1 µM	> 30 µM											> 30 µM	> 30 µM
CN1CCCN(C(c2ccccc2)c2ccc(Cl)cc2)CC1 (configuration not stated) [HOMOCHLORCYCLIZINE]		0.0721 µM	> 30 µM	7.4 µM											> 30 µM	> 30 µM
Cc1cc2c(cc1S(N)(=O)=O)S(=O)(=O)CCC2		> 30 µM	> 30 µM	> 30 µM											> 30 µM	> 30 µM
CN[C@]1(c2ccccc2Cl)CCCCC1=O [ESKETAMINE]	> 30 µM				> 30 µM	> 30 µM		> 30 µM	> 30 µM	> 30 µM			> 30 µM	> 30 µM		
C=C1c2cccc(O)c2C(=O)C2=C(O)[C@]3(O)C(=O)C(C(N)=O)=C(O)[C@@H](N(C)C)[C@@H]3[C@@H](O)[C@H]12 [METHACYCLINE]	> 10 µM				> 30 µM	> 10 µM		> 30 µM	> 10 µM	> 10 µM	41.5 µM			> 30 µM		
CN(C)Cc1nnc2n1-c1ccc(Cl)cc1C(c1ccccc1)=NC2 [ADINAZOLAM]	> 10 µM				> 10 µM	> 10 µM		> 10 µM	> 10 µM	> 10 µM	> 10 µM			> 10 µM		
